In patent US20230271993A1, “3-DEOXY-2-KETOALDONIC ACID NITROGEN-CONTAINING DERIVATIVE, PREPARATION METHOD THEREOF, AND USE THEREOF” (SICHUAN UNIVERSITY, priority 2020, published 2023):
Where two headings read alike, the source gives them in different places.

Columns and labels:
[1] = system: Rhinovirus (HRV-1059)-infected H1 Hela cells; test: Anti-rhinovirus (HRV-1059) activity test, CellTiter-Glo cell viability; assay type: cell-based, rhinovirus HRV-1059 strain; conditions: 100 TCID50 virus per well, 6 days at 37° C., read-out: IC50 Anti-HRV (H1Hela)
Excerpt: (2) Anti-Rhinovirus (HRV-1059) Activity Test
Test object: Rhinovirus (HRV-1059)-infected H1 Hela cells
Testing method: • (1) H1 Hela cells (purchased from the National Experimental Cell Resource Sharing Platform, Cat. No. 3111C0001CCC000344) were inoculated into a 96-well plate at a concentration of 1.5×10^4 cells/well, and the cell culture medium was DMEM medium (purchased from Gibco, Cat. No. 11995065) containing 10% FBS (purchased from Gibco, Cat. No. 16000044), the plate was placed in a CO2 incubator and incubated at 37° C. for 24 hours. • (2) The original medium in the 96-well plate was discarded, 100 μL of DMEM medium (purchased from Gibco, Cat. No. 11995065) containing 2% FBS (purchased from Gibco, Cat. No. 16000044) was taken and added into the cells. Then the stock solution of the compound to be tested was serially diluted with the above DMEM medium to 800 μM, 266.67 μM, 88.89 μM, 29.63 μM, 9.88 μM, 3.29 μM, 1.10 μM, 0.37 μM, 0.12 μM, 0.04 μM, and 50 μL was added to the cell culture plate. The stock solution of positive compound NITD008 (purchased from MCE Company, Cat. No. HY-12957) was serially diluted with the above DMEM medium to 80 μM, 26.67 μM, 8.89 μM, 2.96 μM, 0.99 μM, 0.33 μM, 0.11 μM, 0.04 μM, 0.012 μM, 0.004 μM, 50 μL was added to the cell culture plate. Finally, 50 μL of the rhinovirus HRV-1059 strain (purchased from ATCC, Cat. No. VR-482) diluted with DMEM medium containing 2% FBS was added to the cells, the amount of virus contained in each well was 100 TCID50. The final concentration of the compound to be tested was 0.25 times of the pretreatment concentration, that was, the initial concentration was 200 μM, the dilution was carried out by 3-fold series, the final concentrations of the compound to be tested were: 200 μM, 66.67 μM, 22.22 μM, 7.41 μM, 2.47 μM, 0.82 μM, 0.27 μM, 0.09 μM, 0.03 μM, 0.01 μM. The final concentrations of the positive compound were: 20 μM, 6.67 μM, 2.22 μM, 0.74 μM, 0.25 μM, 0.082 μM, 0.027 μM, 0.009 μM, 0.003 μM, 0.001 μM. Negative control (to the cell well, DMSO and medium were added, without drug) and positive control (to the cell well, DMSO, medium and virus were added, without drug) were set. The cell culture plates were incubated at 37° C. for 6 days. • (3) The Buffer and the substrate of CellTiter-Glo® Chemiluminescent Cell Viability Assay (purchased from Promega, Cat. No. G7573) was mixed in the dark to obtain a working solution. The working solution was mixed with PBS (purchased from Gibco, Cat. No. 10010049) at a ratio of 4:6. After the medium in the cell culture plate was discarded, 100 μl of detection reagent was added to each well, and the 96-well plate was shaken for 5 min with an orbital shaker to induce cell lysis. After stabilizing the signal in the dark for 2 minutes, a microplate reader (purchased from Molecular Devices, model SpectraMax M5) was used to measure the chemiluminescent units, the plate reading program was the preset program of CellTiter-Glo, and the cell viability was calculated:
Cell viability (%)=(A(drug treatment group)−A(positive control))/(A(negative control)−A(positive control))×[…]
(§1) wherein, A represented the reading of the microplate reader.
(§2) Result evaluation: origin8.0 software was used to carry out the S-type curve fitting on the inhibition rate-concentration, and the IC50 value of the compound to be tested was calculated.

[2] = system: Zika virus-infected BHK cells; test: Anti-Zika (ZIKV) virus activity test, CellTiter-Glo cell viability; assay type: cell-based, Zika virus SZ-SMGC-01 strain; conditions: 100 TCID50 virus per well, 9 days at 37° C.
Protocol: (1) Anti-Zika (ZIKV) Virus Activity Test
Test object: Zika virus-infected BHK cells
Testing Method: • (1) BBHK cells (preserved by the Academy of Military Medical Sciences) were inoculated into a 96-well plate at a concentration of 5×10^3 cells/well, and the cell culture medium was DMEM medium (purchased from Gibco Company, Cat. No. 11995065) containing 10% FBS (purchased from Gibco, Cat. No. 16000044), the plate was placed in a CO2 incubator, and incubated at 37° C. for 24 hours. • (2) The original medium in the 96-well plate was discarded, 100 μL of DMEM medium (purchased from Gibco, Cat. No. 11995065) containing 2% FBS (purchased from Gibco, Cat. No. 16000044) was taken and added into the cells. Then, the stock solution of the compound to be tested was serially diluted with the above-mentioned DMEM medium to 800 μM, 266.67 μM, 88.89 μM, 29.63 μM, 9.88 μM, 3.29 μM, 1.10 μM, 0.37 μM, and 50 μL was added to the cell culture plate. The stock solution of positive compound NITD008 (purchased from MCE Company, Cat. No. HY-12957) was serially diluted with the above DMEM medium to 80 μM, 26.67 μM, 8.89 μM, 2.96 μM, 0.99 μM, 0.33 μM, 0.11 μM, 0.04 μM, and 50 μL was added to the cell culture plate. Finally, 50 μL of Zika virus SZ-SMGC-01 strain (preserved by the Academy of Military Medical Sciences) diluted in DMEM medium containing 2% FBS was added to the cells, each well contained 100 TCID50 of the virus. The final concentration of the compound to be tested was 0.25 times the pretreatment concentration, that was, the initial concentration was 200 μM, and dilution was carried out by 3-fold series, so that the final concentrations of the compound to be tested were: 200 μM, 66.67 μM, 22.22 μM, 7.41 μM, 2.47 μM, 0.82 μM, 0.27 μM, 0.09 μM. The final concentrations of the positive compound were: 20 μM, 6.67 μM, 2.22 μM, 0.74 μM, 0.25 μM, 0.082 μM, 0.027 μM, 0.009 μM. Negative control (to the cell well, DMSO and culture medium were added, without drug) and positive control (to the cell well, DMSO, culture medium and virus were added, without drug) were set. The cell culture plates were incubated at 37° C. for 9 days. • (3) The Buffer and the substrate of CellTiter-Glo® Chemiluminescent Cell Viability Assay (purchased from Promega, Cat. No. G7573) were mixed in the dark to prepare a working solution. The working solution was mixed with PBS (purchased from Gibco, Cat. No. 10010049) at a ratio of 4:6. After the medium in the cell culture plate was discarded, 100 μl of detection reagent was added to each well, and the 96-well plate was shaken for 5 min with an orbital shaker to induce cell lysis. After stabilizing the signal in the dark for 2 minutes, a microplate reader (purchased from Molecular Devices, model SpectraMax M5) was used to measure the chemiluminescent units, the plate reading program was the preset program of CellTiter-Glo, and the cell viability was calculated:
Cell viability (%)=(A(drug treatment group)−A(positive control))/(A(negative control)−A(positive control))×100%
as §1, §2

[3] = Enterovirus, HRV1059, H1-HeLa, 144 h

IC50 [1, 3]	IC50 [1]	Structure (SMILES)	IC50 ([2]; Zika virus, BHK, 216 h)	IC50 [2]
> 200 µM	–	COC(=O)[C@]1(N=[N+]=[N-])OC([C@H](OC(=O)c2ccccc2)[C@@H](COC(=O)c2ccccc2)OC(=O)c2ccccc2)[C@H](NC(C)=O)C(OC(=O)c2ccccc2)C1N=[N+]=[N-] (stereo partly shown) [Compound 6b]	10.6 µM	–
–	> 200 µM	COC(=O)[C@]1(N=[N+]=[N-])OC([C@H](OC(=O)c2ccccc2)[C@@H](COC(=O)c2ccccc2)OC(=O)c2ccccc2)[C@H](NC(C)=O)C(OC(=O)c2ccccc2)C1N=[N+]=[N-] (stereo partly shown) [Compound 6d]	–	10.3 µM
–	0.05 µM	C#C[C@@]1(O)[C@H](O)[C@@H](CO)O[C@H]1n1ccc2c(N)ncnc21 [NITD008, reference compound]	–	1 µM
–	> 200 µM	COC(=O)[C@@]1(N=[N+]=[N-])OC([C@H](OC(=O)c2ccccc2)[C@@H](COC(=O)c2ccccc2)OC(=O)c2ccccc2)[C@H](NC(C)=O)C(OC(=O)c2ccccc2)C1N=[N+]=[N-] (stereo partly shown) [Compound 6c]	–	11 µM
10.8 µM	–	COC(=O)[C@]1(N=[N+]=[N-])OC([C@@H](COC(C)=O)OC(C)=O)[C@H](OC(C)=O)C(OC(C)=O)C1N=[N+]=[N-] (stereo partly shown) [Compound 10a]	> 200 µM	–
> 200 µM	–	COC(=O)[C@@]1(N=[N+]=[N-])OC([C@H](OC(=O)c2ccccc2)[C@@H](COC(=O)c2ccccc2)OC(=O)c2ccccc2)[C@H](NC(C)=O)C(OC(=O)c2ccccc2)C1N=[N+]=[N-] (stereo partly shown) [Compound 6a]	21.7 µM	–

The next lines start with the compound.

Structure (SMILES)	IC50 [1, 3]	IC50 [1]	IC50 ([2]; Zika virus, BHK, 216 h)	IC50 [2]
COC(=O)[C@@]1(N=[N+]=[N-])OC([C@H](OC(=O)c2ccccc2)[C@@H](COC(=O)c2ccccc2)OC(=O)c2ccccc2)[C@H](NC(C)=O)C(OC(=O)c2ccccc2)C1N (stereo partly shown) [Compound 14]	> 200 µM	–	14.6 µM	–
COC(=O)[C@@]1(N=[N+]=[N-])OC([C@H](O[Si](C)(C)C(C)(C)C)[C@H]2COC(C)(C)O2)[C@H](NC(C)=O)C(O[Si](C)(C)C(C)(C)C)C1N=[N+]=[N-] (single isomer, unassigned) [Compound 4b]	–	18.9 µM	–	2.49 µM
COC(=O)[C@@]1(N=[N+]=[N-])OC([C@H](O[Si](C)(C)C(C)(C)C)[C@H]2COC(C)(C)O2)[C@H](NC(C)=O)C(O[Si](C)(C)C(C)(C)C)C1N=[N+]=[N-] (single isomer, unassigned) [Compound 4a]	–	4.58 µM	1.41 µM	–
CC1(C)OC[C@H](C2O[C@](N=[N+]=[N-])(C(=O)O)C(N=[N+]=[N-])C(O)[C@H]2O)O1 (stereo partly shown) [Compound 19]	24.6 µM	–	> 200 µM	–
CC(=O)N[C@@H]1C(OC(=O)c2ccccc2)C(N=[N+]=[N-])[C@@](N=[N+]=[N-])(C(=O)O)OC1[C@H](OC(=O)c1ccccc1)[C@@H](COC(=O)c1ccccc1)OC(=O)c1ccccc1 (stereo partly shown) [Compound 13]	13.3 µM	–	20 µM	–
